Broadly, the melting point is the temperature, or range, at which the solid turns liquid.

SMILES strings stand for the structures. Counter-ions that a name gives are not always drawn. Like-named read-outs stand apart in the source and are kept apart here.

The target of series [1] is human inducible NOS (iNOS) (Homo sapiens (Human), UniProt P35228). Kind of series: Human iNOS enzyme assay, radiometric. Format: biochemical. From the text: Standard deviations were 10% or less.
For the next series, the target named is Rat nNOS (Rattus norvegicus (Rat), UniProt P29476). The series is described as follows: Rat nNOS hemoglobin capture assay. Type of series: biochemical. As to conditions: Table 2a. From the text: (§1) The NOS isoforms used in this example were recombinant enzymes expressed in E. coli. Rat nNOS was expressed and purified as described previously (Roman et al., Proc. Natl. Acad. Sci. USA 92:8428-8432, 1995). The bovine eNOS isoform was isolated as reported (Martasek et al., Biochem. Biophys. Res. Commun. 219:259-365, 1996) and murine macrophage iNOS was expressed and isolated according to the procedure of Hevel et al. (J. Biol. Chem. 266:22789-22791, 1991). IC50 values and percent inhibition of NOS by the compounds of the invention were determined under initial velocity measurement conditions with the hemoglobin capture assay as previously described (Hevel and Marletta, Methods Enzymol. 133:250-258, 1994). In this assay, nitric oxide reacts with oxyhemoglobin to yield methemoglobin, which was detected at 401 nm (e=19,700 M^−1 cm^−1) on a Perkin-Elmer Lamda 10 UV/vis spectrophotometer. The assays were performed using varying test compound concentrations. Assay mixtures for nNOS or eNOS contained […], 1.6 mM CaCl2, 11.6 mg/mL calmodulin, […], 6.5 mM BH4 and […] in 100 mM Hepes (pH 7.5). Assay mixtures for iNOS contained 10 mM of L-arginine, […], 6.5 mM BH4 and […] in 100 mM Hepes (pH 7.5). All assays were conducted in a final volume of 600 μL and were initiated with enzyme.

A further series deals with murine macrophage iNOS (Mus musculus (Mouse), UniProt P29477). The series is described as follows: Murine iNOS hemoglobin capture assay. Format: biochemical.
Text: as §1

For another series, the target named is bovine eNOS (Bos taurus (Bovine), UniProt P29473). Kind of series: Bovine eNOS hemoglobin capture assay. Type of series: biochemical.
Text: as §1

Series [2] has as its system rat cortical neuronal cultures. The series is described as follows: Neuroprotection of rat cortical cells against NMDA challenge. Format: cell-based. As to conditions: 60-minute pre-incubation; 30 minutes 25 μM NMDA; propidium iodide after 24 hrs; FIG. 1. The procedure:
According to a previously reported procedure (Tremblay et al., J Neurosci. 20(19):7183-92, 2000), test compounds were added for a 60-minute pre-incubation period to rat cortical neuronal cultures, which were then exposed for 30 minutes to 25 μM NMDA in buffer. After 24 hrs cultures were treated with propidium iodide and the % cell death determined and compared to control cells.

For series [3], the target named is human endothelial constitutive NOS (eNOS) (Homo sapiens (Human), UniProt P29474). The series is described as follows: Human eNOS enzyme assay, radiometric.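 Note: recombinant human eNOS expressed in baculovirus-infected Sf9 cells, activity read as [3H]L-arginine turned into [3H]L-citrulline, the product isolated on ion-exchange resin.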
Description: (§2) In a radiometric method, NO synthase activity was determined by measuring the conversion of [^3H]L-arginine to [^3H]L-citrulline.
(§3) The total volume of the reaction mixture was 150 μL in every well. […] The reaction was stopped by adding 20 μL of ice-cold buffer containing 100 mM HEPES, 3 mM EGTA, 3 mM EDTA, pH=5.5. [^3H]L-citrulline was separated by DOWEX (ion-exchange resin DOWEX 50 W X 8-400, SIGMA) and the DOWEX was removed by spinning at 12,000 g for 10 min in the centrifuge. […] All assays were performed at least in duplicate. Standard deviations were 10% or less.
For series [4], the target named is human neuronal constitutive NOS (nNOS) (Homo sapiens (Human), UniProt P29475). The series is described as follows: Human nNOS enzyme assay, radiometric [3H]L-arginine to [3H]L-citrulline.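 Note: recombinant human nNOS expressed in baculovirus-infected Sf9 cells, enzyme activity measured radiometrically as turnover of [3H]L-arginine into [3H]L-citrulline.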
Description: as §2, §3
The subject of the next series is migraine attack. Conditions: open pilot study; cited from earlier work.
In another series the test system is migraine. Conditions: single i.v. administration; human migraine; cited from earlier work.
The next series has as its system persistent shock. As to conditions: up to 30 days; 11 patients with persistent shock; cited from earlier work.
In another series the test system is hindpaw allodynia. Kind of series: Experimental migraine model, inflammatory soup on dura, hindpaw allodynia.
For another series, the system named is cardiogenic shock. Conditions: randomized trial of 30 patients; reduced from 67%; cited from earlier work.
Another series concerns the target 5-HT1B (Rattus norvegicus (Rat), UniProt P28564). Kind of series: 5-HT1B binding assay (agonist radioligand), rat cerebral cortex. The procedure:
5-HT1D binding assays (agonist radioligand)were performed using bovine caudate membranes according to the methods of Heuring and Peroutka (J. Neurosci 1987, 7: 894-903). 5-HT1B (rat cerebral cortex) binding assays (agonist radioligand) were performed according to the method of Hoyer et. al. (Eur. J. Pharmacol. 1995, 118: 1-12). For the purpose of result analysis, the specific ligand binding to the receptors is defined as the difference between the total binding and the nonspecific binding as determined in the presence of an excess of unlabelled ligand. The results are expressed as a percent of control specific binding obtained in the presence of the test compounds. IC50 values (concentration causing a half-maximal inhibition of control specific binding) and Hill coefficients (nH) were determined by non-linear regression analysis of the competition curves using Hill equation curve fitting and the inhibition constants (Ki) were calculated from the Cheng Prusoff equation (Ki=IC50/(1+(L/KD)), where L=concentration of radioligand in the assay, and KD=affinity of the radioligand for the receptor).

[5] abbreviates: Table I, human NOS, dihydrochloride or monohydrochloride salts, read-out: iNOSh.
[6] abbreviates: read-out: eNOSh, Table I, human NOS, dihydrochloride or monohydrochloride salts.
Where [7] appears, read: read-out: nNOSh, Table I, human NOS, dihydrochloride or monohydrochloride salts.
[8] abbreviates: Table 2a, hemoglobin capture assay, read-out: Murine iNOS.
The mark [9] stands for this setting: Table 2a, hemoglobin capture assay, read-out: Bovine eNOS.

5-HT1B, sequence (P28564 whole entry): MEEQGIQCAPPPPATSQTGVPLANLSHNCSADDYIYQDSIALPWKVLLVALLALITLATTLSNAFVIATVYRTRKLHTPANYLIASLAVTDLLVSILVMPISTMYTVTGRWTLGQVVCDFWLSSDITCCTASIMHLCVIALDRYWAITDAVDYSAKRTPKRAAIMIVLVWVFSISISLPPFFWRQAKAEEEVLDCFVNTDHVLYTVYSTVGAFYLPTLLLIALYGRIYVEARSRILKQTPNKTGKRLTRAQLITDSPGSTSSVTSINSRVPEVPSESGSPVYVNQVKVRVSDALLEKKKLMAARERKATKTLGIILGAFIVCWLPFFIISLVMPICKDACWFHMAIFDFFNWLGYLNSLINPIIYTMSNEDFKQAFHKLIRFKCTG

Consider `CN(C)CCc1c[nH]c2ccc(NC(=N)c3cccs3)cc12` [Compound 18], for which the IC50 came out at 12 µM in [1] (Table 2b, read-out: Human iNOS); 12 µM in series [1] (setting [5]); 3.3 µM against Rat nNOS; 43.5 µM at murine macrophage iNOS; 248 µM against bovine eNOS; 26 µM in series [3] (read-out: Human eNOS, Table 2b). The IC50 is 26 µM in series [3] (setting [6]); 2.6 µM in series [4] (read-out: Human nNOS, Table 2b); 2.6 µM in series [4] (setting [7]). Besides, the “protection of neuronal cells from death upon NMDA challenge” value in series [2] is “protected neuronal cells from death”. In series [4] (Table I, ratio eNOSh/nNOSh), the e/n stood at 10.

In the case of `CN1CCCC1CCn1ccc2ccc(NC(=N)c3cccs3)cc21` (stereo not drawn) [Compound 32], the IC50 stood at 4.1 µM at Rat nNOS, 67.2 µM on murine macrophage iNOS (setting [8]) and 6.2 µM on bovine eNOS (setting [9]).

As to `C/C1=C2/[N-][C@H]([C@H](CC(N)=O)[C@@]2(C)CCC(=O)NC[C@@H](C)OP(=O)([O-])O[C@H]2[C@@H](O)[C@@H](n3cnc4cc(C)c(C)cc43)O[C@@H]2CO)[C@]2(C)N=C(/C(C)=C3N=C(/C=C4N=C1[C@@H](CCC(N)=O)C\4(C)C)[C@@H](CCC(N)=O)[C@]\3(C)CC(N)=O)[C@@H](CCC(N)=O)[C@]2(C)CC(N)=O.[Co+3].[OH-]` [hydroxycobalamin], in the series with migraine attack, the “patients with reduction in the frequency of migraine attack of 50%” value was 53%.

For `CN=C(N)NCCC[C@H](N)C(=O)O.Cl` [L-NMMA, L-N^G methylarginine hydrochloride], in the series on migraine, the response rate is recorded as 67%. In addition, the survival rate in the series on persistent shock is recorded as 72%. Besides, the “development of hindpaw allodynia” value in the series with hindpaw allodynia (10 mg/kg i.v 10 minutes prior to IS) is recorded as “prevents the development of hindpaw allodynia”.

Turning to `N=C(Nc1ccc2ccn(CCc3ccccc3)c2c1)c1cccs1` [Compound 27], the IC50 was 320 µM in series [1] (Table 2b, read-out: Human iNOS); 14.6 µM against Rat nNOS; 159 µM on murine macrophage iNOS (setting [8]); over 300 µM at bovine eNOS (setting [9]); over 100 µM in [3] (read-out: Human eNOS, Table 2b); 12 µM in series [4] (read-out: Human nNOS, Table 2b).

With `CCSC(=N)Nc1ccc2[nH]ccc2c1` [Compound 4], the IC50 turned out to be 29.6 µM against Rat nNOS, 46.9 µM on murine macrophage iNOS (setting [8]) and 164 µM on bovine eNOS (setting [9]).

The molecule `CN1CCC[C@H]1CCc1c[nH]c2ccc(NC(=N)c3cccs3)cc12` (as salt: hydrochloride) [Compound 147, (R)-N-(3-(2-(1-Methylpyrrolidin-2-yl)ethyl)-1H-indol-5-yl)thiophene-2-carboximidamide] showed a melting point of 212 °C.

For the molecule `COC(=O)[C@@H](N)CCCNC(=N)N[N+](=O)[O-]` [L-NAME], the patient mortality in the series with cardiogenic shock is listed as 27%.

`CCN1CCC(c2c[nH]c3ccc(NC(=N)c4cccs4)cc23)CC1` [Compound 61, N-(3-(1-ethylpiperidin-4-yl)-1H-indol-5-yl)thiophene-2-carboximidamide]: the melting point lay within 150 to 152 °C.

`CN1CC=C(c2c[nH]c3ccc(NC(=N)c4cccs4)cc23)CC1` [Compound 42, N-(3-(1-methyl-1,2,3,6-tetrahydropyridin-4-yl)-1H-indol-5-yl)thiophene-2-carboximidamide]: the IC50 in [1] (setting [5]) was 20 µM; on 5-HT1B, 0.16 µM; in series [3] (setting [6]), 51.1 µM; in series [4] (setting [7]), 0.92 µM. Besides, the e/n in [4] stood at 53. In addition, the “development of hindpaw allodynia” value in the series with hindpaw allodynia (6 mg/kg i.v. 10 minutes prior to IS) was “prevents the development of hindpaw allodynia”.
